Literature values in US10557153B2, “Degradation of lignocellulosic material” (DSM IP ASSETS B.V., priority 2008, dated 2020).

Key:
Settings in all cases: S (Cellobiose) 2.5 g/L
[1] = system: Trichoderma beta-glucosidase
[2] = system: A. niger beta-glucosidase
[3] = system: A. oryzae beta-glucosidase
[4] = system: Talaromyces beta-glucosidase

## OC[C@H]1O[C@@H](O[C@H]2[C@H](O)[C@@H](O)C(O)O[C@@H]2CO)[C@H](O)[C@@H](O)[C@@H]1O (stereo partly shown) [cellobiose]
[1]
  Vmax (cellobiose): 470 gr/gr protein/hr
[2]
  Vmax (cellobiose): 400 gr/gr protein/hr
[3]
  Vmax (cellobiose): 10131 gr/gr protein/hr
[4]
  Vmax (cellobiose): 1080 gr/gr protein/hr
